Reference: patent US20240115649A1, “CASPASE INHIBITION TO ENHANCE REGENERATION AND REPAIR AFTER SKIN OR GUT INJURY AND TO TREAT BACTERIAL OR VIRAL INFECTIONS” (The Johns Hopkins University, priority 2020, published 2024)

Experiments:
S. pyogenes strain Xen20 = type: in vivo; conditions: WT C57BL/6 mice; single dose at 4 hours; vs untreated
neogenic hair follicles = experiment: Wound Induced Hair Neogenesis (WIHN) assay; type: in vivo, mice
Method: Wound Induced Hair Neogenesis (WIHN) Assay. All in vivo experimental surgical procedures were performed as previously characterized ^1,2,6-8. In short, after exposure to vaporizing anesthesia (Baxter, Isoflurane) the dorsal side of male and female 3-week-old (21 days) mice were shaved at approximately 8-10 g of weight. Using surgical scissors, approximately 1.26 cm^2×1.25 cm^2 of skin was excised creating wounds deep into the fascia. At 3 days post-wounding, a single dose (50 μl) of 100 μg/mL high molecular weight (HMW) polyinosinic-polycytidylic acid (Poly (I:C)) (Invivogen, tlrl-pic) was administered underneath the scab site via injection in both wild-type and transgenic mice as previously described^2,8. For functional experiments characterizing IL-36 on WIHN, a single dose (50 μl) of 1 μg/mL recombinant mouse IL-36α protein (R&D Systems, 7059-ML/CF) was injected underneath the scab site at 7 days post-wounding. For rescue experiments using the small molecule, broad spectrum pan-caspase inhibitor, 20 ul of 5 mg/mL Q-VD-OPh (in DMSO) was diluted 130 μL of phosphate-buffered saline (PBS) (1.33 mM final concentration) and injected intraperitoneally in mice 24 hours prior to wounding and approximately 10 days after wounding (scab detachment).
Immunofluorescence, immunocytochemistry, and immunohistochemistry.

[1] = test system: DSS treated C57BL/J6 mice; experiment: DSS-induced colitis model; type: in vivo
Excerpt: Histology. Biopsies from mouse colon and skin tissue were removed and fixed in 4% paraformaldehyde overnight and then transferred to 70% ethanol. Samples were then submitted to the Johns Hopkins Oncology Tissue Services Core facility where they were embedded in paraffin. Tissue sections were obtained at 4pin thickness and mounted onto glass slides, followed by hematoxylin and eosin (H&E) staining.
Colitis Model. In order to induce colitis, adult wild-type, Rnasel -A , and Il36r^−/− mice were fed up to 4% (w/v) 36-50 kDa dextran sodium sulfate (DSS) (MP Biomedicals, 160110) in sterile water^37. Weight changes were monitored and recorded every day. For rescue experiments using the pan-caspase inhibitor Q-VD-OPh, mice were treated at the same concentrations as in WIHN experiments and were injected intraperitoneally during the day when noticeable weight loss began to occur (˜day 3-4). Mice were eventually sacrificed and colon lengths were extracted for gross examination and downstream FACS and protein analysis.

BMDMs = experiment: BMDM cultures with live S. aureus ± caspase inhibitors; conditions: Q-VD-OPH 10 μg/mL, live S. aureus 6 hours

CC(C)[C@H](NC(=O)c1ccc2ccccc2n1)C(=O)N[C@@H](CC(=O)O)C(=O)COc1c(F)cccc1F [Q-VD-OPH, Quinoline-val-asp-difluorophenoxymethyl ketone]
bacterial burden (in vivo BLI) (S. pyogenes strain Xen20): rapidly reduced bacterial burden
skin lesion sizes (S. pyogenes strain Xen20): substantially decreased skin lesion sizes
WIHN (neogenic hair follicles; Il36r^−/− mice treated with Q-VD-OPh): do not
WIHN (neogenic hair follicles; wild-type mice, Q-VD-OPh 1.33 mM i.p. 24 hours prior to and ~10 days after wounding, vs vehicle): more WIHN
IL-36α in the epidermis of re-epithelialized wounds (neogenic hair follicles; wild-type mice, Q-VD-OPh i.p., vs vehicle): higher levels of IL-36α in the epidermis of re-epithelialized wounds
gut shortening after DSS treatment ([1]; Il36r^−/− mice): does not rescue gut shortening
weight loss ([1]; Il36r^−/− mice, DSS): does not rescue weight loss
IL-36α expression in the gut ([1]; WT mice): Increased IL-36α expression
neutrophil abundance in the blood or the gut ([1]; regenerative phase following cessation of DSS, vs controls): no change in neutrophil abundance
DSS-induced weight loss ([1]; wild-type mice, 4% DSS, Q-VD-OPh i.p. 1.33 mM, vs control): protected from DSS-induced weight loss
colon length and morphology ([1]; wild-type mice, 4% DSS, Q-VD-OPh i.p., vs control): longer and better colon morphology
necroptosis (western blot for pMLKL and MLKL) (BMDMs): necroptosis was increased
percentages of TNF+ BMDMs (BMDMs; Emricasan 9 μg/mL): 33.53%
viable cells (Zombie UV negative cells) (BMDMs; Emricasan 9 μg/mL, no significant differences vs no treatment): ~80%
